Literature values as cited in patent US20220249637A1, “COMBINATION THERAPY OF A CELL-MEDIATED CYTOTOXIC THERAPY AND AN INHIBITOR OF A PROSURVIVAL BCL2 FAMILY PROTEIN” (Juno Therapeutics, Inc., priority 2019, published 2022).

Legend:
[1] = system: CD3+ cells; conditions: human, in vivo; cited from earlier work
[2] = system: CD3+CD4+ and CD3+CD8+ T cells; conditions: mouse, in vivo; cited from earlier work

Substance: navitoclax
- average decrease of CD3+ cells [1]: 241 cells/μL
- decrease in T cells at final visits [1]: maintained
- CD3+CD4+ and CD3+CD8+ T cells in the peripheral blood [2]: induced a relative and absolute reduction
